From patent publication US8703768B2, “Nitrogen containing heteroaryl compounds” (Hoffmann-La Roche Inc., priority 2010, dated 2014)

Biological target: human PDE10A (Homo sapiens (Human), UniProt Q9Y233)
Assay: human PDE10A full length Scintillation Proximity Assay (SPA)
Assay type: biochemical
Conditions: 50 nM cGMP and 50 nM [3H]-cGMP, 20 minutes at room temperature; read-out: PDE10A inhibition IC50
Outline: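 Radiometric SPA read-out: after 20 min at room temperature with [^3H]-cGMP/cGMP substrate, zinc sulphate (18 mM) bead stop reagent added and counts read after 1 h. Non-specific signal defined without enzyme; full-length protein used.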

Chain of human PDE10A (Q9Y233 other isoform, or with tags, fused parts or gaps): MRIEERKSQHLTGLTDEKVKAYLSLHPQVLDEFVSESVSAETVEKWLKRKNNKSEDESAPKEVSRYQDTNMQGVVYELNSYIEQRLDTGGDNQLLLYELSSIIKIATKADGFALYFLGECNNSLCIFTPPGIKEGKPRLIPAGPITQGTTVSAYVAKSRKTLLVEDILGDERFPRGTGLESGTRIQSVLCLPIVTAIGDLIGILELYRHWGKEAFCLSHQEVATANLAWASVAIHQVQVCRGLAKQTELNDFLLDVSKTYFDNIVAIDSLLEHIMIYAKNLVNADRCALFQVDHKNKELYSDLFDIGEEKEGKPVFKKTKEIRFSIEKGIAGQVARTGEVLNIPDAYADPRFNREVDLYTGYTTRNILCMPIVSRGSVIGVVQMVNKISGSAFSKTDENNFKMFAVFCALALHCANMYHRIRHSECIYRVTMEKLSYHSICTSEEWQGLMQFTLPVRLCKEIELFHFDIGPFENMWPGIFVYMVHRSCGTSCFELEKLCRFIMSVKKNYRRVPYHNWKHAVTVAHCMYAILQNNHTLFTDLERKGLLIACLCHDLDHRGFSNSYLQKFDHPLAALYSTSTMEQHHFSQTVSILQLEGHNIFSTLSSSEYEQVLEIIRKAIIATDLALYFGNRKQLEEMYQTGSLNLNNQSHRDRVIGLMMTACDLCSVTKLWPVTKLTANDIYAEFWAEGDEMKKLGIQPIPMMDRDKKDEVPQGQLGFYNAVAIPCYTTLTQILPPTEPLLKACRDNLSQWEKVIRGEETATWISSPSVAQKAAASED

Structure (SMILES) | IC50
CNC(=O)c1nn(C)cc1NC(=O)c1nc(C(C)O)cnc1Nc1cncnc1 (stereo not shown) [Example 115, 6-(1-Hydroxy-ethyl)-3-(pyrimidin-5-ylamino)-pyrazine-2-carboxylic acid (1-methyl-3-methylcarbamoyl-1H-pyrazol-4-yl)-amide] | 171 nM
CNC(=O)c1nc(C2CCCO2)ccc1NC(=O)c1nc(C2CC2)cnc1Nc1cncnc1 (stereo not shown) [Example 177, 6-Cyclopropyl-3-(pyrimidin-5-ylamino)-pyrazine-2-carboxylic acid [2-methylcarbamoyl-6-(tetrahydro-furan-2-yl)-pyridin-3-yl]-amide] | 0.2 nM
CCN(CCO)C(=O)c1ncccc1NC(=O)c1nc(C2CC2)cnc1Nc1cncnc1 [Example 270, 6-Cyclopropyl-3-(pyrimidin-5-ylamino)-pyrazine-2-carboxylic acid {2-[ethyl-(2-hydroxy-ethyl)-carbamoyl]-pyridin-3-yl}-amide] | 53.3 nM
CNC(=O)c1cc(CCC(=O)O)ccc1NC(=O)c1nc(C2CC2)cnc1Nc1cncnc1 [Example 328, 3-(4-{[6-Cyclopropyl-3-(pyrimidin-5-ylamino)-pyrazine-2-carbonyl]-amino}-3-methylcarbamoyl-phenyl)-propionic acid] | 0.4 nM
CCn1ncc(NC(=O)c2nc(C3CC3)cnc2Nc2cncnc2)c1C(=O)NCC(C)(C)O [Example 132, 6-Cyclopropyl-3-(pyrimidin-5-ylamino)-pyrazine-2-carboxylic acid [1-ethyl-5-(2-hydroxy-2-methyl-propylcarbamoyl)-1H-pyrazol-4-yl]-amide] | 16.9 nM
CC1(NC(=O)c2ncccc2NC(=O)c2nc(C3CC3)cnc2Nc2cncnc2)COC1 [Example 275, 6-Cyclopropyl-3-(pyrimidin-5-ylamino)-pyrazine-2-carboxylic acid [2-(3-methyl-oxetan-3-ylcarbamoyl)-pyridin-3-yl]-amide] | 0.4 nM
CN(C)C1CCN(C(=O)c2ccncc2NC(=O)c2nc(C3CC3)ccc2Nc2cncnc2)C1 (stereo not shown) [Example 53, 6-Cyclopropyl-3-(pyrimidin-5-ylamino)-pyridine-2-carboxylic acid [4-(3-dimethylamino-pyrrolidine-1-carbonyl)-pyridin-3-yl]-amide] | 73.7 nM
O=C(Nc1cccc(F)c1C(=O)N1CCC1)c1nc(C2CC2)cnc1Nc1cncnc1 [Example 309, 6-Cyclopropyl-3-(pyrimidin-5-ylamino)-pyrazine-2-carboxylic acid [2-(azetidine-1-carbonyl)-3-fluoro-phenyl]-amide] | 1.1 nM
CN(C(=O)c1c(NC(=O)c2nc(C3CC3)cnc2Nc2cncnc2)cnn1C)C1CC1 [Example 238, 6-Cyclopropyl-3-(pyrimidin-5-ylamino)-pyrazine-2-carboxylic acid [5-(cyclopropyl-methyl-carbamoyl)-1-methyl-1H-pyrazol-4-yl]-amide] | 52.3 nM
CN(C)C(=O)c1nn(-c2ccccn2)cc1NC(=O)c1nc(C2CC2)ccc1Nc1cncnc1 [Example 74, 6-Cyclopropyl-3-(pyrimidin-5-ylamino)-pyridine-2-carboxylic acid (3-dimethylcarbamoyl-1-pyridin-2-yl-1H-pyrazol-4-yl)-amide] | 7.3 nM
CNC(=O)c1ccc(F)cc1NC(=O)c1nc(C2CC2)cnc1Nc1cncnc1 [Example 292, 6-Cyclopropyl-3-(pyrimidin-5-ylamino)-pyrazine-2-carboxylic acid (5-fluoro-2-methylcarbamoyl-phenyl)-amide] | 0.7 nM
CNC(=O)c1c(NC(=O)c2nc(C3CC3)cnc2Nc2cncnc2)ccc(C)c1C [Example 263, 6-Cyclopropyl-3-(pyrimidin-5-ylamino)-pyrazine-2-carboxylic acid (3,4-dimethyl-2-methylcarbamoyl-phenyl)-amide] | 54.3 nM
COC1CCN(C(=O)c2nn(C)cc2NC(=O)c2nc(C3CC3)ccc2Nc2cncnc2)C1 (stereo not shown) [Example 48, 6-Cyclopropyl-3-(pyrimidin-5-ylamino)-pyridine-2-carboxylic acid [3-(3-methoxy-pyrrolidine-1-carbonyl)-1-methyl-1H-pyrazol-4-yl]-amide] | 8.3 nM
